PubChem BioAssay AID248 (DTP/NCI, 2004)
Values joined by “and” are separate entries in the source; they are usually repeats but may differ in a detail not shown here. Equal entries are not always repeated. Inconclusive results and toxic doses are left out.

System: L1210 leukemia ip in BDF1 mice, survival T/C
Assay: NCI In Vivo Anticancer Drug Screen. Data for tumor model L1210 Leukemia (intraperitoneal) in B6D2F1 (BDF1) mice
Details: endpoint: mean survival time, higher = longer survival
Summary of the method: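 Tumor was transplanted into mice, which were then dosed with test compound or vehicle alone. Survival was recorded for each group, and the treated figure was expressed relative to the control figure.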

[1] = dose: 100.0 mg/kg/injection, schedule: Q04DX003 (ip), vehicle: saline with Tween-80
[2] = dose: 200.0 mg/kg/injection, schedule: Q04DX003 (ip), vehicle: saline with Tween-80
[3] = dose: 400.0 mg/kg/injection, schedule: Q04DX003 (ip), vehicle: saline with Tween-80
[4] = dose: 100.0 mg/kg/injection, schedule: Q01DX009 (ip), vehicle: saline with Tween-80
[5] = dose: 200.0 mg/kg/injection, schedule: Q01DX009 (ip), vehicle: saline with Tween-80
[6] = dose: 400.0 mg/kg/injection, schedule: Q01DX009 (ip), vehicle: saline with Tween-80
[7] = dose: 100.0 mg/kg/injection, schedule: Q04DX003 (ip), vehicle: saline
[8] = dose: 200.0 mg/kg/injection, schedule: Q04DX003 (ip), vehicle: saline
[9] = dose: 400.0 mg/kg/injection, schedule: Q04DX003 (ip), vehicle: saline

In the case of C[N+](C)(C)CCCCCCCCCC[N+](C)(C)C, the T/C (dose: 0.39 mg/kg/injection, schedule: Q04DX003 (ip), vehicle: saline with Tween-80) was 99 % of control, the T/C (dose: 0.78 mg/kg/injection, schedule: Q04DX003 (ip), vehicle: saline with Tween-80) was 95 % of control and the T/C (dose: 1.56 mg/kg/injection, schedule: Q04DX003 (ip), vehicle: saline with Tween-80) was 92 % of control.

CCCCCCCCCCCCCCCc1cccc2ccccc12 was tested, and the T/C [1] was 92 % of control, the T/C [2] was 92 % of control and the T/C [3] was 88 % of control.

Cc1ccc(C(=O)CCl)o1 was tested, and the T/C [1] was 106 % of control and the T/C [2] was 116 % of control.

In the case of O=C(O)c1ccccc1C(=O)Nc1cccc2ccccc12, the T/C (dose: 100.0 mg/kg/injection, schedule: Q04DX002 (ip), vehicle: Klucel (hydroxypropylcellulose) (HPC)) was 88 % of control and the T/C (dose: 200.0 mg/kg/injection, schedule: Q04DX002 (ip), vehicle: Klucel (hydroxypropylcellulose) (HPC)) was 104 % of control.

With CC(=O)OC1CCC(NC(=O)N(CCF)N=O)CC1 (stereo not drawn) the T/C (dose: 20.0 mg/kg/injection, schedule: Q01DX001 (ip), vehicle: other) was 298 % of control and the T/C (dose: 40.0 mg/kg/injection, schedule: Q01DX001 (ip), vehicle: other) was 333 % of control.

COc1cccc(CC(=O)NCCc2ccc(OC)c(OC)c2)c1 was tested, and the T/C [4] was 92 % of control, the T/C [1] was 92 % of control and the T/C [5] was 95 % of control. The T/C [2] was 94 % of control, the T/C [6] was 90 % of control and the T/C [3] was 91 % of control.

C#CC1(OCC(CCl)OC(N)=O)CCCCC1 (stereo not drawn) was tested, and the T/C (dose: 25.0 mg/kg/injection, schedule: Q01DX009 (ip), vehicle: saline with Tween-80) was 105 % of control, the T/C (dose: 25.0 mg/kg/injection, schedule: Q04DX003 (ip), vehicle: saline with Tween-80) was 105 % of control and the T/C (dose: 50.0 mg/kg/injection, schedule: Q01DX009 (ip), vehicle: saline with Tween-80) was 105 % of control. For the same compound, the T/C (dose: 50.0 mg/kg/injection, schedule: Q04DX003 (ip), vehicle: saline with Tween-80) was 95 % of control, the T/C [4] was 102 % of control and the T/C [1] was 101 % of control. The T/C [5] was 105 % of control, the T/C [2] was 100 % of control and the T/C [6] was 97 % of control. The T/C [3] was 86 % of control.

For CC(C)(C)C=O, the T/C [7] was 102 % of control, the T/C [8] was 96 % of control and the T/C [9] was 100 % of control.

O=C1NC(c2c(Cl)cccc2Cl)Nc2ccccc21 (stereo not drawn) was tested, and the T/C (dose: 100.0 mg/kg/injection, schedule: Q04DX003 (ip), vehicle: Klucel (hydroxypropylcellulose) (HPC)) was 100 % of control, the T/C (dose: 200.0 mg/kg/injection, schedule: Q04DX003 (ip), vehicle: Klucel (hydroxypropylcellulose) (HPC)) was 100 % of control and the T/C (dose: 400.0 mg/kg/injection, schedule: Q04DX003 (ip), vehicle: Klucel (hydroxypropylcellulose) (HPC)) was 111 % of control.

In the case of Cc1cc(C(=O)O)c(CO)c(=O)n1C, the T/C (dose: 100.0 mg/kg/injection, schedule: Q04DX003 (ip), vehicle: water) was 104 % of control, the T/C (dose: 200.0 mg/kg/injection, schedule: Q04DX003 (ip), vehicle: water) was 104 % of control and the T/C (dose: 400.0 mg/kg/injection, schedule: Q04DX003 (ip), vehicle: water) was 94 % of control.

With CCN(CCO)CC1OC(OC)C2OC(C)(C)OC12 (stereo not drawn) the T/C (dose: 100.0 mg/kg/injection, schedule: Q01DX009 (ip), vehicle: saline) was 97 % of control, the T/C [7] was 98 % of control and the T/C (dose: 200.0 mg/kg/injection, schedule: Q01DX009 (ip), vehicle: saline) was 100 % of control. The T/C [8] was 95 % of control, the T/C (dose: 400.0 mg/kg/injection, schedule: Q01DX009 (ip), vehicle: saline) was 94 % of control and the T/C [9] was 96 % of control.

With O=c1ssc(Cl)c1Cl the T/C (dose: 9.5 mg/kg/injection, schedule: Q01DX001 (ip), vehicle: other) was 94 % of control, the T/C (dose: 10.0 mg/kg/injection, schedule: Q04DX003 (ip), vehicle: other) was 97 % of control and the T/C (dose: 19.0 mg/kg/injection, schedule: Q01DX001 (ip), vehicle: other) was 103 % of control. The T/C (dose: 20.0 mg/kg/injection, schedule: Q04DX003 (ip), vehicle: other) was 107 % of control, the T/C (dose: 38.0 mg/kg/injection, schedule: Q01DX001 (ip), vehicle: other) was 87 % of control and the T/C (dose: 40.0 mg/kg/injection, schedule: Q04DX003 (ip), vehicle: other) was 88 % of control.

With O=c1[nH]c(=S)[nH]c(-c2ccccc2)c1Cc1ccccc1 the T/C (dose: 50.0 mg/kg/injection, schedule: Q01DX001 (ip), vehicle: saline) was 100 % of control, the T/C (dose: 100.0 mg/kg/injection, schedule: Q01DX001 (ip), vehicle: saline) was 96 % of control and the T/C (dose: 200.0 mg/kg/injection, schedule: Q01DX001 (ip), vehicle: saline) was 94 % of control. For the same compound, the T/C (dose: 400.0 mg/kg/injection, schedule: Q01DX001 (ip), vehicle: saline) was 94 % of control.

For COC(=O)c1cc2ccccc2c2ccccc12, the T/C [4] was 94 % of control, the T/C [5] was 91 % of control and the T/C [6] was 87 % of control.

For CC1CCCC/C1=N/NC(N)=O (stereo not drawn), the T/C (dose: 100.0 mg/kg/injection, schedule: Q01DX009 (ip), vehicle: Klucel (hydroxypropylcellulose) (HPC)) was 97 % of control, the T/C [7] was 97 % of control and the T/C [8] was 88 % of control. For the same compound, the T/C [9] was 95 % of control.

In the case of Cn1c2c(c3ccccc31)C(=C(c1ccccc1)c1ccccc1)c1ccccc1-2, the T/C (dose: 100.0 mg/kg/injection, schedule: Q04DX002 (ip), vehicle: saline with Tween-80) was 87 % of control and the T/C (dose: 200.0 mg/kg/injection, schedule: Q04DX002 (ip), vehicle: saline with Tween-80) was 87 % of control.

In the case of c1nc(SC2=NCCN2)c2[nH]cnc2n1, the T/C (dose: 2.62 mg/kg/injection, schedule: Q01DX Z (ip), vehicle: saline) was 116 % of control, the T/C (dose: 5.0 mg/kg/injection, schedule: Q01DX001 (ip), vehicle: saline) was 100 % of control and the T/C (dose: 5.25 mg/kg/injection, schedule: Q01DX Z (ip), vehicle: saline) was 118 % of control. The T/C (dose: 5.25 mg/kg/injection, schedule: Q01DX Z (oral), vehicle: saline) was 114 % of control, the T/C (dose: 10.0 mg/kg/injection, schedule: Q01DX001 (ip), vehicle: saline) was 105 % of control and the T/C (dose: 10.5 mg/kg/injection, schedule: Q01DX Z (oral), vehicle: saline) was 114 % of control. For the same compound, the T/C (dose: 12.5 mg/kg/injection, schedule: Q01DX009 (ip), vehicle: saline) was 115 % of control, the T/C (dose: 12.5 mg/kg/injection, schedule: Q04DX003 (ip), vehicle: saline) was 109 % of control and the T/C (dose: 20.0 mg/kg/injection, schedule: Q01DX001 (ip), vehicle: saline) was 103 % of control. The T/C (dose: 22.0 mg/kg/injection, schedule: Q04DX003 (ip), vehicle: saline) was 106 % of control, the T/C (dose: 25.0 mg/kg/injection, schedule: Q01DX009 (ip), vehicle: saline) was 118 % of control and the T/C (dose: 25.0 mg/kg/injection, schedule: Q04DX003 (ip), vehicle: saline) was 117 % of control. The T/C (dose: 33.0 mg/kg/injection, schedule: Q04DX003 (ip), vehicle: saline) was 114 % of control and 116 % of control, the T/C (dose: 40.0 mg/kg/injection, schedule: Q01DX001 (ip), vehicle: saline) was 108 % of control and the T/C (dose: 42.0 mg/kg/injection, schedule: Q01DX Z (ip), vehicle: saline) was 156 % of control. For the same compound, the T/C (dose: 50.0 mg/kg/injection, schedule: Q01DX009 (ip), vehicle: saline) was 150 % of control and 178 % of control, the T/C (dose: 50.0 mg/kg/injection, schedule: Q04DX003 (ip), vehicle: saline) was 115 % of control and 118 % of control and the T/C (dose: 168.0 mg/kg/injection, schedule: Q01DX Z (oral), vehicle: saline) was 87 % of control.

For NC(=O)C(F)(F)C(F)(F)C(F)(F)F, the T/C (dose: 50.0 mg/kg/injection, schedule: Q01DX001 (ip), vehicle: Klucel (hydroxypropylcellulose) (HPC)) was 97 % of control, the T/C (dose: 100.0 mg/kg/injection, schedule: Q01DX001 (ip), vehicle: Klucel (hydroxypropylcellulose) (HPC)) was 97 % of control and the T/C (dose: 200.0 mg/kg/injection, schedule: Q01DX001 (ip), vehicle: Klucel (hydroxypropylcellulose) (HPC)) was 103 % of control.

For NC(N)=Nc1ccc([N+](=O)[O-])cc1, the T/C (dose: 12.5 mg/kg/injection, schedule: Q04DX002 (ip), vehicle: Klucel (hydroxypropylcellulose) (HPC)) was 103 % of control, the T/C (dose: 25.0 mg/kg/injection, schedule: Q04DX002 (ip), vehicle: Klucel (hydroxypropylcellulose) (HPC)) was 98 % of control and the T/C (dose: 50.0 mg/kg/injection, schedule: Q04DX002 (ip), vehicle: Klucel (hydroxypropylcellulose) (HPC)) was 103 % of control.

With Nc1c(O)c(Cl)cc(Cl)c1Cl the T/C (dose: 100.0 mg/kg/injection, schedule: Q04DX002 (ip), vehicle: other) was 110 % of control and the T/C (dose: 200.0 mg/kg/injection, schedule: Q04DX002 (ip), vehicle: other) was 107 % of control.
